Measured values reported in patent publication US20240383874A1, “BENZENE RING DERIVATIVE, AND COMPOSITION AND PHARMACEUTICAL USE THEREOF” (Xizang Haisco Pharmaceutical Co., Ltd., priority 2020, published 2024).
Where two headings read alike, the source gives them in different places.

Columns and labels:
22RV1 cells = assay: Experiment 1 on inhibiting 22RV1 cell proliferation (5 days, CellTiter-Glo); format: cell-based; conditions: 1% css-FBS phenol red-free medium, incubated with compound 5 days, read-out: IC50 values on proliferation inhibition of 22RV1 cells
Experimental: Prostate cancer cells 22RV1 were purchased from ATCC, the cell medium was RPMI 1640+10% FBS, and the cells were cultured in an incubator at 37° C. under 5% CO2. On day 1, the cells in an exponential phase were collected. With a 1% css-FBS phenol red-free medium, the cell suspension was adjusted to a corresponding concentration, plated at 2000 cells/well and incubated overnight. On day 2, compounds at different concentrations were added, and the plate was placed in the incubator and incubated for further 5 days. After the incubation was completed, according to operation instructions for a CellTiter-Glo kit (Promega, G7573), 50 μL of CTG solution, which was already pre-melted and equilibrated to room temperature, was added to each well, and the mixtures were uniformly mixed for 2 min using a microplate shaker. The plate was placed at room temperature for 10 min, and then fluorescence signal values were measured using a microplate reader (PHERAstar FSX). The results were processed according to formula (1), the survival rate of the compound at different concentrations was calculated, and the IC50 value of the compound with a survival rate of 50% was calculated using origin9.2 software with DoseResp function, wherein RLUcompound was the readout of the treated group, and RLUcontrol was the average value of the DMSO vehicle control group.

[1] = Pharmacokinetic test in beagle dogs; format: in vivo; conditions: dog, plasma, oral; male beagle dogs, i.v. 1 mg/kg and i.g. 10 mg/kg, single dose
Experimental: Test objective: a single dose of test compounds was administered to beagle dogs intravenously and intragastrically, and the concentrations of the test compounds in plasma of the beagle dogs were measured to evaluate pharmacokinetic characteristics of the test compounds in the beagle dogs.
Test animals: male beagle dogs, about 8-11 kg, 6 beagle dogs/compound, purchased from Beijing Marshall Biotechnology Co., Ltd.
Test method: on the day of the test, 6 beagle dogs were randomly grouped according to their body weights. The animals were fasted with water available for 12 to 14 hours one day before the administration of a test compound, and were fed 4 hours after the administration. The administration was performed according to Table 10.
Sampling: before and after the administration, 1 ml of blood was taken from the limb veins, and placed in an EDTAK2 centrifuge tube. Centrifugation was carried out at 5000 rpm at 4° C. for 10 min, and the plasma was collected.
Time points for blood collection: 0 min, 5 min, 15 min, 30 min, 1 h, 2 h, 4 h, 6 h, 8 h, 10 h, 12 h and 24 h. Before analysis and detection, all samples were stored at −80° C. The samples were analyzed quantitatively by LC-MS/MS.

[2] = target: T1, AR splice variant 7 (AR-V7) (Homo sapiens, UniProt P10275); assay: Degradation experiment on AR splice variant 7 (AR-V7) in 22RV1 cells; format: cell-based; conditions: 24 h, degradation rate 50% relative to vehicle control
T1 construct: host or cells: 22RV1 prostate cancer cells
T1 sequence (P10275 1-644 isoform P10275-3): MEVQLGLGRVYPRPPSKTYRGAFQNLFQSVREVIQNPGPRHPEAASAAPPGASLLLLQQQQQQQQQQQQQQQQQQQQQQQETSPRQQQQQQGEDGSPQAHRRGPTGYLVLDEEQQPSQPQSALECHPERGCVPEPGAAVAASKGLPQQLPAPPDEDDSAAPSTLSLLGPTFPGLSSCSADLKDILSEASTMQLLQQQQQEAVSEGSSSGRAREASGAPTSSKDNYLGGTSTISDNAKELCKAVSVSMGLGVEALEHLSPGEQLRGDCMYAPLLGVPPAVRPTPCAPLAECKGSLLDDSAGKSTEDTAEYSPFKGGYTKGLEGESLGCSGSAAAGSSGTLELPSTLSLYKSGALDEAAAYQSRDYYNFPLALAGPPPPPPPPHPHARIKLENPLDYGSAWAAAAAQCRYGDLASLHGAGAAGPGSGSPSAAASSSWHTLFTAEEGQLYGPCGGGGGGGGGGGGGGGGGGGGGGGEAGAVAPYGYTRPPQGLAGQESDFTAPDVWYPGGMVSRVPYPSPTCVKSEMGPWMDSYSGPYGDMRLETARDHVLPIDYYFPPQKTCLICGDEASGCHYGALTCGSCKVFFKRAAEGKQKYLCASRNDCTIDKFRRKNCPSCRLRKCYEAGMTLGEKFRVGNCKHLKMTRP
Experimental: Prostate cancer cells 22RV1 were purchased from ATCC, the cell medium was 1640+10% FBS, and the cells were cultured in an incubator at 37° C. under 5% CO2. On day 1, the cells in an exponential phase were collected. With a 1% css-FBS phenol red-free medium, the cell suspension was adjusted to a corresponding concentration and plated into a 6-well plate at 1 mL/well and 300000 cells/well. The next day, a 1% css-FBS phenol-free medium containing the compound to be tested was added, a 1% css-FBS phenol-free medium containing 0.2% DMSO was added to one well as DMSO vehicle control, and the 6-well plate was cultured in an incubator at 37° C. under 5% CO2. After 24 h, the cells were digested with pancreatin and collected into a 1.5 mL centrifuge tube. […] The supernatant protein samples were collected, and protein quantification was performed by a BCA method. AR-V7 was detected using fully automatic protein expression quantitative analysis, which involved diluting the protein to be tested to 2 mg/mL. […] The prepared reagents were successively added to an assay plate according to instructions of the kit and detected on an instrument. Western blot band processing was performed using “Compass for SW”, a fully automatic protein expression quantitative analysis software, in which western blot bands were automatically simulated based on signal values. […]

| SMILES | IC50 (22RV1 cells) [nM] | IC50 (22RV1 cells; Homo sapiens, 22Rv1, 120 h) [nM] | bioavailability [1] [%] | DC50 [2] [nM] |
| --- | --- | --- | --- | --- |
| O=C1CCC(N2C(=O)c3ccc(N4CCN(CC5CCN(S(=O)(=O)Nc6ccc(Cl)cc6C(=O)Nc6ccc(C(F)(F)F)cc6Cl)CC5)CC4)cc3C2=O)C(=O)N1 (stereo not shown) [Compound 1, 5-chloro-N-(2-chloro-4-(trifluoromethyl)phenyl)-2-{[(4-[(4-(2-(2,6-dioxopiperidin-3-yl)-1,3-dioxo-2,3-dihydro-1H-isoindol-5-yl)piperazin-1-yl)methyl]piperidin-1-yl)sulfonyl]amino}benzamide] | 835 | 500 to 1500 |  |  |
| COc1c(Cl)cc(C(C)(C)c2ccc(OCc3ccnc(N4CCC(CN5CCC(C6CCN(c7ccc8c(c7)n(C)c(=O)n8C7CCC(=O)NC7=O)CC6)CC5)CC4)n3)cc2)cc1C#N (stereo not shown) [Compound 97, 3-chloro-5-(2-(4-((2-(4-((1′-(1-(2,6-dioxopiperidin-3-yl)-3-methyl-2-oxo-2,3-dihydro-1H-benzo[d]imidazol-5-yl)-[4,4′-bipiperidin]-1-yl)methyl)piperidin-1-yl)pyrimidin-4-yl)methoxy)phenyl)propan-2-yl)-2-methoxybenzonitrile] |  |  | > 15 |  |
| O=C1CCC(N2C(=O)c3ccc(N4CC(N5CCN(S(=O)(=O)Nc6ccc(Cl)cc6-c6nc7cc(C(F)(F)F)cc(Cl)c7[nH]6)CC5)C4)cc3C2=O)C(=O)N1 (stereo not shown) [Compound 2, N-(4-chloro-2-(7-chloro-5-(trifluoromethyl)-1H-1,3-benzodiazol-2-yl)phenyl)-4-(1-(2-(2,6-dioxopiperidin-3-yl)-1,3-dioxo-2,3-dihydro-1H-isoindol-5-yl)azetidin-3-yl)piperazine-1-sulfonamide] | 594 | 500 to 1500 |  |  |
| COc1c(Cl)cc(C(C)(C)c2ccc(OCc3ccnc(N4CCC(CN5CCC(C6CCN(c7ccc(C8CCC(=O)NC8=O)cc7)CC6)CC5)CC4)n3)cc2)cc1C#N (stereo not shown) [Compound 119, 3-chloro-5-(2-(4-((2-(4-((1′-(4-(2,6-dioxopiperidin-3-yl)phenyl)-[4,4′-bipiperidin]-1-yl)methyl)piperidin-1-yl)pyrimidin-4-yl)methoxy)phenyl)propan-2-yl)-2-methoxybenzonitrile] |  |  |  | 3710 |
| O=C1CCC(N2C(=O)c3ccc(N4CCC(CN5CCN(S(=O)(=O)Nc6ccc(Cl)cc6C(=O)Nc6ccc(C(F)(F)F)cc6Cl)CC5)CC4)cc3C2=O)C(=O)N1 (stereo not shown) [Compound 3, 5-chloro-N-(2-chloro-4-(trifluoromethyl)phenyl)-2-((4-((1-(2-(2,6-dioxopiperidin-3-yl)-1,3-dioxoisoindolin-5-yl)piperidin-4-yl)methyl)piperazine)-1-sulfonamido)benzamide] | 1240 |  |  |  |
